In article PMC5218480 (PLoS ONE, 2017):

Test system: MV-4-11 cells
Assay: Gene expression microarray analysis (Affymetrix PrimeView) and GSEA
Format: cell-based, human
Design: RFU PODN (11730768_x_at) / Fold change /veh PODN (11730768_x_at) / RFU LINC00158 (11744669_a_at) / Fold change /veh LINC00158 (11744669_a_at) / RFU DUSP10 (11751237_a_at) / Fold change /veh DUSP10 (11751237_a_at) / RFU ID3 (11757404_x_at) / Fold change /veh ID3 (11757404_x_at) / RFU PLEKHG5 (11737974_s_at) / Fold change /veh PLEKHG5 (11737974_s_at) / RFU LRRC4B (11730491_at) / Fold change /veh LRRC4B (11730491_at) / RFU GIMAP4 (11747438_a_at) / Fold change /veh GIMAP4 (11747438_a_at) / RFU KRT8 (11758183_x_at) / Fold change /veh KRT8 (11758183_x_at) / RFU CNN1 (11734310_a_at) / Fold change /veh CNN1 (11734310_a_at) / RFU VPS37D (11726825_at) / Fold change /veh VPS37D (11726825_at) / RFU C10orf10 (11716522_x_at) / Fold change /veh C10orf10 (11716522_x_at) / RFU KIR2DL2 /// KIR2DL4 /// KIR2DL5A /// KIR2DL5B /// KIR2DS1 /// KIR2DS2 /// KIR2DS3 /// KIR2DS4 /// KIR3DL3 /// KIR3DL3 /// KIR3DS1 (11738374_at) / Fold change /veh KIR2DL2 /// KIR2DL4 /// KIR2DL5A /// KIR2DL5B /// KIR2DS1 /// KIR2DS2 /// KIR2DS3 /// KIR2DS4 /// KIR3DL3 /// KIR3DL3 /// KIR3DS1 (11738374_at) / RFU C1QL1 (11718748_at) / Fold change /veh C1QL1 (11718748_at) / RFU TMPRSS4 (11747572_a_at) / Fold change /veh TMPRSS4 (11747572_a_at) / RFU HAMP (11756126_x_at) / Fold change /veh HAMP (11756126_x_at) / RFU RNFT2 (11725882_a_at) / Fold change /veh RNFT2 (11725882_a_at) / RFU NR4A2 (11747474_a_at) / Fold change /veh NR4A2 (11747474_a_at) / RFU ABCC12 (11746883_a_at) / Fold change /veh ABCC12 (11746883_a_at) / RFU TMEM136 (11760407_x_at) / Fold change /veh TMEM136 (11760407_x_at) / RFU CLDN22 /// WWC2 (11732394_at) / Fold change /veh CLDN22 /// WWC2 (11732394_at) / RFU HLA-DPB1 (11760878_x_at) / Fold change /veh HLA-DPB1 (11760878_x_at) / RFU SPINT1 (11716480_a_at) / Fold change /veh SPINT1 (11716480_a_at) / RFU GAP43 (11754022_s_at) / Fold change /veh GAP43 (11754022_s_at) / RFU A4GNT (11735810_at) / Fold change /veh A4GNT (11735810_at) / RFU PRB3 (11715151_x_at) / Fold change /veh PRB3 (11715151_x_at) / RFU TUBB4B (11761932_at) / Fold change /veh TUBB4B (11761932_at) / RFU CAPN14 (11732068_a_at) / Fold change /veh CAPN14 (11732068_a_at) / RFU TMCC2 (11721928_a_at) / Fold change /veh TMCC2 (11721928_a_at) / RFU IRGQ (11745062_a_at) / Fold change /veh IRGQ (11745062_a_at) / RFU FAM174B (11720279_a_at) / Fold change /veh FAM174B (11720279_a_at) / RFU TMPRSS4 (11748680_a_at) / Fold change /veh TMPRSS4 (11748680_a_at) / RFU FAM212B (11763350_a_at) / Fold change /veh FAM212B (11763350_a_at) / RFU PLEKHG5 (11743358_a_at) / Fold change /veh PLEKHG5 (11743358_a_at) / RFU ZSCAN30 (11745921_a_at) / Fold change /veh ZSCAN30 (11745921_a_at) / RFU CMKLR1 (11741424_a_at) / Fold change /veh CMKLR1 (11741424_a_at) / RFU LOC101060620 /// MAPK8IP1 (11723275_at) / Fold change /veh LOC101060620 /// MAPK8IP1 (11723275_at) / RFU SPTSSB (11747773_x_at) / Fold change /veh SPTSSB (11747773_x_at) / RFU PRSS12 (11739890_at) / Fold change /veh PRSS12 (11739890_at) / RFU BIN1 (11741810_x_at) / Fold change /veh BIN1 (11741810_x_at) / RFU WNT11 (11732464_a_at) / Fold change /veh WNT11 (11732464_a_at) / RFU C10orf10 (11716521_a_at) / Fold change /veh C10orf10 (11716521_a_at) / RFU C5orf56 (11738089_at) / Fold change /veh C5orf56 (11738089_at) / RFU CYB561 (11721691_x_at) / Fold change /veh CYB561 (11721691_x_at) / RFU ANKRD19P (11752326_a_at) / Fold change /veh ANKRD19P (11752326_a_at) / RFU OR2T12 /// OR2T33 /// OR2T8 (11738714_s_at) / Fold change /veh OR2T12 /// OR2T33 /// OR2T8 (11738714_s_at) / RFU VCAN (11748164_a_at) / Fold change /veh VCAN (11748164_a_at) / RFU JSRP1 (11732532_at) / Fold change /veh JSRP1 (11732532_at) / RFU KRTAP10-11 (11738290_x_at) / Fold change /veh KRTAP10-11 (11738290_x_at) / RFU MYO3A (11730013_a_at) / Fold change /veh MYO3A (11730013_a_at) / RFU EBF3 (11725865_a_at) / Fold change /veh EBF3 (11725865_a_at) / RFU CAMK2N1 (11719241_x_at) / Fold change /veh CAMK2N1 (11719241_x_at) / RFU C5orf56 (11738088_a_at) / Fold change /veh C5orf56 (11738088_a_at) / RFU OLFML3 (11715873_a_at) / Fold change /veh OLFML3 (11715873_a_at) / RFU LOC100653217 /// NTM (11731650_a_at) / Fold change /veh LOC100653217 /// NTM (11731650_a_at) / RFU MAPK11 (11762145_a_at) / Fold change /veh MAPK11 (11762145_a_at) / RFU FIZ1 (11724087_x_at) / Fold change /veh FIZ1 (11724087_x_at) / RFU OASL (11726364_x_at) / Fold change /veh OASL (11726364_x_at) / RFU SOX15 (11748057_x_at) / Fold change /veh SOX15 (11748057_x_at) / RFU CD79A (11719716_a_at) / Fold change /veh CD79A (11719716_a_at) / RFU HIST1H1D (11736915_at) / Fold change /veh HIST1H1D (11736915_at) / RFU CASKIN2 (11723855_a_at) / Fold change /veh CASKIN2 (11723855_a_at) / RFU LOC730098 (11760151_x_at) / Fold change /veh LOC730098 (11760151_x_at) / RFU OR4N2 (11742367_at) / Fold change /veh OR4N2 (11742367_at) / RFU PRRT2 (11749266_a_at) / Fold change /veh PRRT2 (11749266_a_at) / RFU SNX32 (11753110_a_at) / Fold change /veh SNX32 (11753110_a_at) / RFU CDHR5 (11726645_a_at) / Fold change /veh CDHR5 (11726645_a_at) / RFU RCAN1 (11760418_a_at) / Fold change /veh RCAN1 (11760418_a_at) / RFU FAM167A (11723789_a_at) / Fold change /veh FAM167A (11723789_a_at) / RFU FAM26E (11764081_at) / Fold change /veh FAM26E (11764081_at) / RFU ISYNA1 (11749810_s_at) / Fold change /veh ISYNA1 (11749810_s_at) / RFU ACY1 (11761880_at) / Fold change /veh ACY1 (11761880_at) / RFU 11764098_at / Fold change /veh 11764098_at / RFU SAMD14 (11745864_x_at) / Fold change /veh SAMD14 (11745864_x_at) / RFU NPB (11741838_a_at) / Fold change /veh NPB (11741838_a_at) / RFU TMPRSS6 (11731388_a_at) / Fold change /veh TMPRSS6 (11731388_a_at) / RFU KRTAP10-2 (11738614_at) / Fold change /veh KRTAP10-2 (11738614_at) / RFU ARHGAP8 /// PRR5-ARHGAP8 (11727945_x_at) / Fold change /veh ARHGAP8 /// PRR5-ARHGAP8 (11727945_x_at) / RFU KRTAP5-7 /// NADSYN1 (11734609_at) / Fold change /veh KRTAP5-7 /// NADSYN1 (11734609_at) / RFU RASL12 (11751679_a_at) / Fold change /veh RASL12 (11751679_a_at) / RFU CDKN2B (11736163_a_at) / Fold change /veh CDKN2B (11736163_a_at) / RFU PRF1 (11729649_at) / Fold change /veh PRF1 (11729649_at) / RFU, ZNF638 /// ZNF638-IT1 / Fold change vs veh, ZNF638 /// ZNF638-IT1 / RFU, PANK3 / Fold change vs veh, PANK3 / RFU, SH3YL1 / Fold change vs veh, SH3YL1 / RFU, ZEB2 / Fold change vs veh, ZEB2 / RFU, NRIP1 / Fold change vs veh, NRIP1 / RFU, PTTG1IP / Fold change vs veh, PTTG1IP / RFU, CAPN2 / Fold change vs veh, CAPN2 / RFU, MED14 / Fold change vs veh, MED14 / RFU, SNORA58 / Fold change vs veh, SNORA58 / RFU, C1orf63 / Fold change vs veh, C1orf63 / RFU, LRRFIP1 / Fold change vs veh, LRRFIP1 / RFU, NDUFAF7 / Fold change vs veh, NDUFAF7 / RFU, SLC12A2 / Fold change vs veh, SLC12A2 / RFU, IBTK / Fold change vs veh, IBTK / RFU, ESF1 / Fold change vs veh, ESF1 / Fold change vs veh, TMEM50B / RFU, TAOK1 / Fold change vs veh, TAOK1 / RFU, ACBD3 / Fold change vs veh, ACBD3 / RFU, TMA16 / Fold change vs veh, TMA16 / RFU, RWDD3 / Fold change vs veh, RWDD3 / RFU, BCAT1 / Fold change vs veh, BCAT1 / RFU, EDEM3 / Fold change vs veh, EDEM3 / RFU, TMEM33 / Fold change vs veh, TMEM33 / RFU, WDR75 / Fold change vs veh, WDR75 / RFU, AHCTF1 / Fold change vs veh, AHCTF1 / RFU, TFRC / Fold change vs veh, TFRC / RFU, ZDHHC17 / Fold change vs veh, ZDHHC17 / RFU, NOM1 / Fold change vs veh, NOM1 / RFU, ARL8B / Fold change vs veh, ARL8B / RFU, ZBTB11 / Fold change vs veh, ZBTB11 / RFU, TAMM41 / Fold change vs veh, TAMM41 / RFU, KIAA1704 /// LOC100996395 / Fold change vs veh, KIAA1704 /// LOC100996395 / RFU, ING1 / Fold change vs veh, ING1 / RFU, TRMT61B / Fold change vs veh, TRMT61B / RFU, FUBP3 / Fold change vs veh, FUBP3 / RFU, TP53 / Fold change vs veh, TP53 / RFU, TNKS2 / Fold change vs veh, TNKS2 / RFU, ZFP14 / Fold change vs veh, ZFP14 / RFU, ACTR2 / Fold change vs veh, ACTR2 / RFU, PPP3R1 / Fold change vs veh, PPP3R1 / RFU, PIK3R1 / Fold change vs veh, PIK3R1 / RFU, HNRNPA1 / Fold change vs veh, HNRNPA1 / RFU, RNF170 / Fold change vs veh, RNF170 / RFU, ZNF28 / Fold change vs veh, ZNF28 / RFU, RNGTT / Fold change vs veh, RNGTT / RFU, OGT / Fold change vs veh, OGT / RFU, BRD1 / Fold change vs veh, BRD1 / RFU, MARS / Fold change vs veh, MARS / RFU, ZNF655 / Fold change vs veh, ZNF655 / RFU, FAHD1 / Fold change vs veh, FAHD1 / RFU, BDP1 / Fold change vs veh, BDP1 / RFU, LRRCC1 / Fold change vs veh, LRRCC1 / RFU, ARID1A / Fold change vs veh, ARID1A / RFU, ZNF146 / Fold change vs veh, ZNF146 / RFU, ZNF330 / Fold change vs veh, ZNF330 / RFU, GPN3 / Fold change vs veh, GPN3 / RFU, C9orf123 / Fold change vs veh, C9orf123 / RFU, N4BP2L2 / Fold change vs veh, N4BP2L2 / RFU, ARFIP1 / Fold change vs veh, ARFIP1 / RFU, FAM179B / Fold change vs veh, FAM179B / RFU, BCL10 / Fold change vs veh, BCL10 / RFU, UHRF1BP1L / Fold change vs veh, UHRF1BP1L / RFU, BET1 / Fold change vs veh, BET1 / RFU, CNOT2 / Fold change vs veh, CNOT2 / RFU, ZNF268 / Fold change vs veh, ZNF268 / Fold change vs veh, ZNF507 / RFU, DGCR2 / Fold change vs veh, DGCR2 / RFU, WDSUB1 / Fold change vs veh, WDSUB1 / Fold change vs veh, HSP90B1 /// MIR3652 / RFU, ADSS / Fold change vs veh, ADSS / RFU, GK / Fold change vs veh, GK / RFU, ZNF148 / Fold change vs veh, ZNF148 / RFU, TAF9 / Fold change vs veh, TAF9 / RFU, SLC1A5 / Fold change vs veh, SLC1A5 / RFU, SLMO2 / Fold change vs veh, SLMO2 / RFU, ABCC4 / Fold change vs veh, ABCC4 / RFU, LOC101060439 /// RAP1B / Fold change vs veh, LOC101060439 /// RAP1B / RFU, RFX7 / Fold change vs veh, RFX7 / RFU, GTPBP10 / Fold change vs veh, GTPBP10 / RFU, CNEP1R1 / Fold change vs veh, CNEP1R1 / RFU, BIVM-ERCC5 /// ERCC5 / Fold change vs veh, BIVM-ERCC5 /// ERCC5 / RFU, ILF3 / Fold change vs veh, ILF3 / RFU 11762660_at / Fold change /veh 11762660_at / RFU VCAN (11757783_s_at) / Fold change /veh VCAN (11757783_s_at) / RFU DDX43 (11728927_at) / Fold change /veh DDX43 (11728927_at) / RFU KRT8 (11758188_x_at) / Fold change /veh KRT8 (11758188_x_at) / RFU NKD1 (11759106_at) / Fold change /veh NKD1 (11759106_at) / RFU SRD5A1 (11742802_a_at) / Fold change /veh SRD5A1 (11742802_a_at) / RFU TPSAB1 /// TPSB2 (11721975_s_at) / Fold change /veh TPSAB1 /// TPSB2 (11721975_s_at) / RFU GSTM3 (11746129_a_at) / Fold change /veh GSTM3 (11746129_a_at) / RFU IL23R (11737362_x_at) / Fold change /veh IL23R (11737362_x_at) / RFU TMEM51 (11727254_a_at) / Fold change /veh TMEM51 (11727254_a_at) / RFU PIWIL2 (11732686_x_at) / Fold change /veh PIWIL2 (11732686_x_at) / RFU ORM1 (11744905_x_at) / Fold change /veh ORM1 (11744905_x_at) / RFU CCDC152 (11743942_at) / Fold change /veh CCDC152 (11743942_at) / RFU ECM1 (11717891_a_at) / Fold change /veh ECM1 (11717891_a_at) / RFU IL23R (11748794_a_at) / Fold change /veh IL23R (11748794_a_at) / RFU TNFAIP8L3 (11732012_x_at) / Fold change /veh TNFAIP8L3 (11732012_x_at) / RFU MBOAT4 (11741988_at) / Fold change /veh MBOAT4 (11741988_at) / RFU 11764193_at / Fold change /veh 11764193_at / RFU TMEM53 (11763286_at) / Fold change /veh TMEM53 (11763286_at) / RFU MAGEB2 (11727129_at) / Fold change /veh MAGEB2 (11727129_at) / RFU TMEM200A (11744735_a_at) / Fold change /veh TMEM200A (11744735_a_at) / RFU CCDC152 (11751479_a_at) / Fold change /veh CCDC152 (11751479_a_at) / RFU FAM211A (11726209_a_at) / Fold change /veh FAM211A (11726209_a_at) / RFU RGS16 (11746705_a_at) / Fold change /veh RGS16 (11746705_a_at) / RFU VCAN (11755009_s_at) / Fold change /veh VCAN (11755009_s_at) / RFU RHOB (11743442_s_at) / Fold change /veh RHOB (11743442_s_at) / RFU RGS16 (11720943_a_at) / Fold change /veh RGS16 (11720943_a_at) / RFU RGS16 (11720944_at) / Fold change /veh RGS16 (11720944_at) / RFU, VPS4B / Fold change vs veh, VPS4B / RFU, CREB1 / Fold change vs veh, CREB1 / RFU, DNAJC13 / Fold change vs veh, DNAJC13 / RFU, GNAQ / Fold change vs veh, GNAQ / RFU, CDK5R1 / Fold change vs veh, CDK5R1 / RFU, ZRANB3 / Fold change vs veh, ZRANB3 / RFU, CUL4A / Fold change vs veh, CUL4A / RFU, CCNY / Fold change vs veh, CCNY / RFU, UFL1 / Fold change vs veh, UFL1 / RFU, COG3 / Fold change vs veh, COG3 / RFU, DIAPH2 / Fold change vs veh, DIAPH2 / RFU, SKA2 / Fold change vs veh, SKA2 / RFU, AFF3 / Fold change vs veh, AFF3 / RFU, LMF1 / Fold change vs veh, LMF1 / RFU, IPO11 / Fold change vs veh, IPO11 / RFU, DFFB / Fold change vs veh, DFFB / RFU, FOXP1 / Fold change vs veh, FOXP1 / RFU, CARD8 / Fold change vs veh, CARD8 / RFU, STRN3 / Fold change vs veh, STRN3 / RFU, ADK / Fold change vs veh, ADK / RFU, RASSF2 / Fold change vs veh, RASSF2 / RFU, WIPF1 / Fold change vs veh, WIPF1 / RFU, LARP1B / Fold change vs veh, LARP1B / RFU, RASA1 / Fold change vs veh, RASA1 / RFU, RB1 / Fold change vs veh, RB1 / RFU, PPFIA1 / Fold change vs veh, PPFIA1 / RFU, MAT2A / Fold change vs veh, MAT2A / RFU, CCT5 / Fold change vs veh, CCT5 / RFU, WDR92 / Fold change vs veh, WDR92 / RFU, CUX1 / Fold change vs veh, CUX1 / RFU, TTC7A / Fold change vs veh, TTC7A / RFU, TMEM135 / Fold change vs veh, TMEM135 / RFU, DEPTOR / Fold change vs veh, DEPTOR / RFU, CPM / Fold change vs veh, CPM / RFU, DNAJB6 / Fold change vs veh, DNAJB6 / RFU, CACNA2D3 / Fold change vs veh, CACNA2D3 / RFU, DTX4 / Fold change vs veh, DTX4 / RFU, TFCP2 / Fold change vs veh, TFCP2 / RFU, GMCL1 /// GMCL1P1 / Fold change vs veh, GMCL1 /// GMCL1P1 / RFU, AEBP2 / Fold change vs veh, AEBP2 / RFU, SNHG1 /// SNORD22 /// SNORD25 /// SNORD26 /// SNORD27 /// SNORD28 /// SNORD29 /// SNORD31 / Fold change vs veh, SNHG1 /// SNORD22 /// SNORD25 /// SNORD26 /// SNORD27 /// SNORD28 /// SNORD29 /// SNORD31 / Fold change (Aza/veh), C12orf56 (ProbeSet 11735607_a_at) / Fold change (ACY-1035/veh), C12orf56 (ProbeSet 11735607_a_at) / Fold change (Aza/veh), FGFR1OP (ProbeSet 11751329_s_at) / Fold change (ACY-1035/veh), FGFR1OP (ProbeSet 11751329_s_at) / Fold change (Aza/veh), VPS36 (ProbeSet 11739960_a_at) / Fold change (ACY-1035/veh), VPS36 (ProbeSet 11739960_a_at) / RFU SYPL1 (11715823_x_at) / Fold change /veh SYPL1 (11715823_x_at) / RFU IGFBP7 (11715501_s_at) / Fold change /veh IGFBP7 (11715501_s_at) / RFU REEP3 (11722064_at) / Fold change /veh REEP3 (11722064_at) / RFU IGLL1 (11728026_x_at) / Fold change /veh IGLL1 (11728026_x_at): dose or concentration left out as unconfirmed
Conditions: MV-4-11 cells, 48 hours

## Nc1ccc(-c2cccs2)cc1NC(=O)c1ccc2c(c1)cc(C1CC1)n2CCN1CCOCC1 [ACY-1035]
  Fold change /veh KRT8 (11758188_x_at): 1.06
